The values below come from ChEMBL document CHEMBL1201862, “PubChem BioAssay data set” (2004).

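48-hour exposure; five concentrations; linearly interpolated endpoints. GI50 = concentration required for 50% inhibition of growth.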 Active and inactive are the calls of the source. No stated cut-off is given here; in the data, active = GI50 up to about 1.1 µM and inactive = higher.

Among the test systems are OVCAR-3; OVCAR-8; SN12C; NCI-H460; KM12; SK-OV-3; DMS-114; SK-MEL-2; HL-60; SNB-19; OVCAR-5; A498; MOLT-4; SF-268; K562; MDA-MB-231; DU-145; Hs-578T; HOP-92; SR.
Assay in all cases: inhibition of tumour cell growth, NCI panel, 48 h

Regarding `O=C1c2ccccc2CCCCCCCCCCC12OCCCO2`, the GI50 was 32.5 µM (inactive) in the assay with OVCAR-3; 87.3 µM (inactive) in the assay with OVCAR-8; 55 µM (inactive) in the assay on SN12C; 26.4 µM (inactive) in the assay with NCI-H460; 27.6 µM (inactive) in the assay with KM12; 80.5 µM (inactive) in the assay with SK-OV-3. The GI50 in the assay with DMS-114 was 12.2 µM (inactive); in the assay on SK-MEL-2 it was 24.3 µM (inactive); in the assay with HL-60, 16 µM (inactive); in the assay on SNB-19 it was 29.5 µM (inactive); with OVCAR-5, 26.7 µM (inactive); with A498, 32.1 µM (inactive). For the same molecule, the GI50 was 17.7 µM (inactive) in the assay with MOLT-4, 11.8 µM (inactive) with SF-268 and 68.4 µM (inactive) in the assay on K562.

Consider `Cc1nc2sc3cccc(Cl)c3n2c(=O)c1/N=N/c1ccc(Cl)cc1`, for which the GI50 is 71 µM (inactive) in the assay with MDA-MB-231; 46.7 µM (inactive) in the assay with OVCAR-3; > 100 µM (inactive) in the assay on DU-145; > 100 µM (inactive) with OVCAR-8; > 100 µM (inactive) in the assay on SN12C; > 100 µM (inactive) with NCI-H460. Further, the GI50 with Hs-578T is 45.9 µM (inactive); in the assay on KM12, > 100 µM (inactive); in the assay with SK-OV-3 it was > 100 µM (inactive); with SK-MEL-2, > 100 µM (inactive); in the assay with HOP-92 it was 46.6 µM (inactive); in the assay with HL-60, > 100 µM (inactive). In addition, the GI50 in the assay on SNB-19 was > 100 µM (inactive); in the assay with OVCAR-5, > 100 µM (inactive); in the assay on SR it was > 100 µM (inactive); in the assay with A498, 17.4 µM (inactive); in the assay on MOLT-4 it was 44.9 µM (inactive); in the assay on SF-268, 58.9 µM (inactive). Further, in the assay on K562, the GI50 is 63 µM (inactive).

Consider `Cc1ccc(C(=O)/C=C2/Nc3ccccc3NC2=O)c(C)c1`, for which the GI50 with MDA-MB-231 is 14.3 µM (inactive); in the assay on OVCAR-3, 32 µM (inactive); with DU-145 it was 30.1 µM (inactive); with OVCAR-8, 5.28 µM (inactive); in the assay on SN12C it was 16 µM (inactive); in the assay with NCI-H460, 13.2 µM (inactive). Also, the GI50 in the assay with Hs-578T is 16.2 µM (inactive); with KM12, 20.8 µM (inactive); in the assay with SK-OV-3, 7.05 µM (inactive); with SK-MEL-2 it was 46.5 µM (inactive); with HOP-92, 3.04 µM (inactive); in the assay with HL-60 it was 23.4 µM (inactive). Moreover, the GI50 was 9.71 µM (inactive) in the assay on SNB-19; 44.7 µM (inactive) in the assay on OVCAR-5; 29.4 µM (inactive) in the assay on SR; 0.228 µM (active) in the assay with A498; 45.5 µM (inactive) with MOLT-4; 6.95 µM (inactive) with SF-268. In addition, the GI50 in the assay with K562 is 61.5 µM (inactive).

On to `COC(=O)C(Cc1c[nH]c2ccccc12)NC1=Nc2ccncc2S(=O)(=O)N1c1ccccc1` (stereo not drawn), for which the GI50 in the assay on MDA-MB-231 was 52.1 µM (inactive); in the assay on OVCAR-3 it was 34.2 µM (inactive); with DU-145, 41.4 µM (inactive); in the assay on OVCAR-8 it was 34 µM (inactive); in the assay with SN12C, 78.3 µM (inactive); with NCI-H460 it was 98.2 µM (inactive). For the same molecule, the GI50 is 56.1 µM (inactive) in the assay with Hs-578T; 31.3 µM (inactive) in the assay with KM12; 56.5 µM (inactive) in the assay on SK-OV-3; 38.1 µM (inactive) in the assay with SK-MEL-2; 20.7 µM (inactive) in the assay on HOP-92; 0.199 µM (active) with HL-60. Also, the GI50 was > 100 µM (inactive) in the assay with SNB-19; 41 µM (inactive) in the assay on OVCAR-5; 20.2 µM (inactive) in the assay on SR; > 100 µM (inactive) in the assay with A498; 15.3 µM (inactive) in the assay with MOLT-4; 38.9 µM (inactive) in the assay on SF-268. Further, the GI50 with K562 was 20.5 µM (inactive).

Take `CC(C)(O)/C1=C/C=C/CCCCCCCCCC1`: the GI50 in the assay on MDA-MB-231, in the assay on OVCAR-3, in the assay with DU-145, in the assay with OVCAR-8, in the assay with SN12C and with NCI-H460 was > 100 µM (inactive) throughout. Further, the GI50 in the assay with Hs-578T was 1.19 µM (inactive); in the assay on KM12 it was > 100 µM (inactive); with SK-OV-3 it was > 100 µM (inactive); in the assay with SK-MEL-2, > 100 µM (inactive); in the assay with HOP-92, 81.3 µM (inactive); in the assay on HL-60 it was 28.9 µM (inactive). Also, the GI50 in the assay with SNB-19 was > 100 µM (inactive); in the assay with OVCAR-5, > 100 µM (inactive); in the assay with SR, 34 µM (inactive); with A498, > 100 µM (inactive); in the assay with MOLT-4, 28.1 µM (inactive); in the assay on SF-268, > 100 µM (inactive). In addition, the GI50 in the assay with K562 is 37.8 µM (inactive).

As for `COc1ccc(NC(=S)N/N=C/c2cccc(C)n2)cc1`, the GI50 was 3.9 µM (inactive) with MDA-MB-231; 3.48 µM (inactive) in the assay with OVCAR-3; 5.56 µM (inactive) with DU-145; 3.74 µM (inactive) in the assay on OVCAR-8; 5.79 µM (inactive) in the assay on SN12C; 3.46 µM (inactive) in the assay with NCI-H460. Moreover, the GI50 in the assay on Hs-578T was 24.7 µM (inactive); in the assay on KM12, 3.98 µM (inactive); in the assay with SK-OV-3, 4.61 µM (inactive); in the assay with SK-MEL-2, 6.4 µM (inactive); in the assay with HOP-92, 5.65 µM (inactive); with HL-60, 1.84 µM (inactive). The GI50 is 7.16 µM (inactive) in the assay with SNB-19; 31.5 µM (inactive) with OVCAR-5; 3.42 µM (inactive) in the assay on SR; 18.8 µM (inactive) with A498; 3.07 µM (inactive) in the assay on MOLT-4; 3.94 µM (inactive) in the assay with SF-268. Moreover, in the assay with K562, the GI50 was 1.62 µM (inactive).

Consider `Cc1ccc(S(=O)(=O)N/N=C/C(=C/c2ccc(Cl)cc2)CC(/C=N/NS(=O)(=O)c2ccc(C)cc2)=C\c2ccc(Cl)cc2)cc1`, for which the GI50 is 10.2 µM (inactive) with MDA-MB-231; 3.07 µM (inactive) with OVCAR-3; 25.8 µM (inactive) in the assay on DU-145; 2.63 µM (inactive) with OVCAR-8; 7.08 µM (inactive) in the assay with SN12C; 5.52 µM (inactive) in the assay with NCI-H460. For the same molecule, the GI50 in the assay on Hs-578T was 3.68 µM (inactive); in the assay on KM12, 7.87 µM (inactive); in the assay with SK-OV-3, 44.4 µM (inactive); in the assay with SK-MEL-2 it was 7.76 µM (inactive); in the assay on HOP-92, 2.23 µM (inactive); in the assay with HL-60, 3.59 µM (inactive). Besides, the GI50 in the assay on SNB-19 was 8.77 µM (inactive); with OVCAR-5 it was 15.3 µM (inactive); in the assay with SR, 2.61 µM (inactive); in the assay with A498, 4.94 µM (inactive); in the assay with MOLT-4, 2.55 µM (inactive); in the assay with SF-268, 5.06 µM (inactive). Also, the GI50 in the assay on K562 was 2.86 µM (inactive).

Turning to `COC(=O)/C=C\c1ccc2c(c1)CC1(C2)Cc2ccc(/C=C/C(=O)OC)cc2C1` (stereo not drawn), the GI50 in the assay on MDA-MB-231 was 17.2 µM (inactive); with OVCAR-3 it was > 31.6 µM (inactive); in the assay with DU-145, > 100 µM (inactive); in the assay on OVCAR-8, 30.8 µM (inactive); in the assay on SN12C, > 31.6 µM (inactive); in the assay on NCI-H460, > 100 µM (inactive). Further, the GI50 in the assay with Hs-578T was > 31.6 µM (inactive); in the assay on KM12 it was > 31.6 µM (inactive); in the assay on SK-OV-3, > 31.6 µM (inactive); with SK-MEL-2 it was > 10 µM (inactive); in the assay with HOP-92, 28.4 µM (inactive); with HL-60, > 31.6 µM (inactive). The GI50 in the assay on SNB-19 was 27 µM (inactive); in the assay on OVCAR-5, > 31.6 µM (inactive); in the assay on SR, 5.57 µM (inactive); in the assay with A498, > 10 µM (inactive); in the assay with MOLT-4 it was > 31.6 µM (inactive); in the assay with SF-268 it was > 100 µM (inactive). The GI50 in the assay on K562 was > 31.6 µM (inactive).
